Assay results from US5948786A, “Piperidinylpyrimidine derivatives” (Sumitomo Pharmaceuticals Company, Limited, priority 1996, dated 1999).

tested on: TNF α production from mouse macrophages; experiment: Inhibitory activity of compound on TNF α Production from mouse macrophages (LPS-induced PEC's); format: cell-based; conditions: Macrophage, LPS 10 μg/ml, 18 hours
Method: BALB/c mice (female, 5-7 weeks old, Charles River Japan, Tokyo, Japan) were injected i.p. with 1 ml of 2.4% thioglycollate broth. After 4 days, the mice were sacrificed. Peritoneal exudated cells (PEC's) were collected from the peritoneal cavity by washing with minimum essential medium (MEM, Handai biseibutubyou kenkyukai, Osaka, Japan) containing 5 U/ml heparin, 1% fetal bovine serum (FBS, Filtron, Victoria, Australia) and antibiotics. The cells were washed two times with MEM, suspended with MEM containing 10% FBS (complete MEM, cMEM) and seeded into 96-well culture plates (Costar, Cambridge, Mass., USA) at 2×10^5 cells/well. The cells were incubated for 1 hour at 37° C. in a humidified 5% CO2 incubator and washed two times to remove non-adherent cells.
TNF α was induced by 10 μg/ml of LPS (E. coli O111B4, DIFCO, Detroit, Mich., USA) the cells were cultured for 18 hours at 37° C. A compound of the present invention was dissolved in DMSO and added to the culture simultaneously with LPS. The final DMSO concentration was below 0.1%. The TNF α concentration in supernatant and recombinant mouse TNF α standard (rm-TNF α, Genzyme, Mass., USA) were incubated overnight at 4° C. in a 96-well plate coated with anti-mouse TNF α monoclonal antibody (PharMingen, San Diego, Calif., USA) that previously had been blocked with 10% FBS. Each well of the plate first was incubated at room temperature with biotinylated anti-mouse TNF α polyclonal antibodies (PharMingen) for 45 minutes, then with peroxidase-conjugated streptavidin (Kirkegaard & Perry Laboratories Inc., Gaitherburg, Md., USA) for 30 minutes. After each incubation, the plate was washed 4 to 8 times with PBS containing 0.2% Tween 20. TMB (Kirkegaard & Perry Laboratories Inc.) was the peroxidase substrate used and, the absorbance of each well was quantified at 450 nm by a microplatereader (Molecular Devices Corp., CA, USA). TNF α levels in the supernatant were quantified with rm-TNF α as the standard.

Row | Structure (SMILES) | inhibition at 30 µM
1 | COc1ccc(-c2cc(C3CCN(C(=O)c4ccccc4)CC3)nc(N)n2)cc1 [Example 5, 2-Amino-4-(1-benzoyl-4-piperidinyl)-6-(4-methoxyphenyl)pyrimidine] | 57%
2 | Nc1nc(-c2ccc(Cl)cc2)cc(C2CCN(C(=O)c3ccccc3)CC2)n1 [Example 6, 2-Amino-4-(1-benzoyl-4-piperidinyl)-6-(4-chlorophenyl)pyrimidine] | 78%
3 | Nc1nc(Cc2ccc(Cl)cc2)cc(C2CCN(C(=O)c3ccccc3)CC2)n1 [Example 7, 2-Amino-4-(1-benzoyl-4-piperidinyl)-6-(4-chlorophenylmethyl)pyrimidine] | 58%
4 | CCC(=O)N1CCC(c2nc(N)nc3ccccc23)CC1 [Example 16] | 4%
5 | CCCC(=O)N1CCC(c2nc(N)nc3ccccc23)CC1 [Example 17] | 8%
6 | CCCCCC(=O)N1CCC(c2nc(N)nc3ccccc23)CC1 [Example 19] | 10%
7 | CCCCCCC(=O)N1CCC(c2nc(N)nc3ccccc23)CC1 [Example 20] | 63%
8 | CCCCCCCC(=O)N1CCC(c2nc(N)nc3ccccc23)CC1 [Example 21] | 74%
9 | CCCCCCCCC(=O)N1CCC(c2nc(N)nc3ccccc23)CC1 [Example 22] | 64%
10 | CCCCCCCCCC(=O)N1CCC(c2nc(N)nc3ccccc23)CC1 [Example 23] | 67%
11 | CCCCCCCCCCC(=O)N1CCC(c2nc(N)nc3ccccc23)CC1 [Example 24] | 70%
12 | CC(C)(C)C(=O)N1CCC(c2nc(N)nc3ccccc23)CC1 [Example 26] | 19%
13 | CC(C)(C)OC(=O)NCCCCCCC(=O)N1CCC(c2nc(N)nc3ccccc23)CC1 [Example 27, 2-amino-4-[1-(7-t-butoxycarbonylaminoheptanoyl)-4-piperidinyl]quinazoline] | 95%
14 | CC(C)(C)OC(=O)NCCCCCCCC(=O)N1CCC(c2nc(N)nc3ccccc23)CC1 [Example 28, 2-amino-4-[1-(8-t-butoxycarbonylaminooctanoyl)-4-piperidinyl]quinazoline] | 100%
15 | CC(C)(C)OC(=O)NCCCCCCCCCCC(=O)N1CCC(c2nc(N)nc3ccccc23)CC1 [Example 29, 2-amino-4-[1-(11-t-butoxycarbonylaminoundecanoyl)-4-piperidinyl]quinazoline] | 100%
16 | Nc1nc(C2CCN(C(=O)CCCCCCCCCO)CC2)c2ccccc2n1 [Example 30] | 64%
17 | COc1ccccc1C(=O)N1CCC(c2nc(N)nc3ccccc23)CC1 [Example 32] | 30%
18 | COc1cccc(C(=O)N2CCC(c3nc(N)nc4ccccc34)CC2)c1 [Example 33] | 18%
19 | Nc1nc(C2CCN(C(=O)c3ccccc3Cl)CC2)c2ccccc2n1 [Example 35] | 72%
20 | Nc1nc(C2CCN(C(=O)c3cccc(Cl)c3)CC2)c2ccccc2n1 [Example 36] | 42%
21 | Nc1nc(C2CCN(C(=O)c3ccc(Cl)cc3)CC2)c2ccccc2n1 [Example 37] | 4%
22 | Nc1nc(C2CCN(C(=O)c3ccccc3[N+](=O)[O-])CC2)c2ccccc2n1 [Example 38] | 30%
23 | Nc1nc(C2CCN(C(=O)c3cccc([N+](=O)[O-])c3)CC2)c2ccccc2n1 [Example 39] | 12%
24 | Nc1nc(C2CCN(C(=O)c3ccc([N+](=O)[O-])cc3)CC2)c2ccccc2n1 [Example 40] | 15%
25 | Nc1nc(C2CCN(C(=O)c3cccnc3)CC2)c2ccccc2n1 [Example 50] | 18%
26 | Nc1nc(C2CCN(C(=O)c3ccncc3)CC2)c2ccccc2n1 [Example 51] | 28%
27 | COc1cccc(C(=O)N2CCC(c3nc(N)nc4ccccc34)CC2)c1OC [Example 52] | 20%
28 | COc1ccc(C(=O)N2CCC(c3nc(N)nc4ccccc34)CC2)c(OC)c1 [Example 53] | 54%
29 | COc1ccc(C(=O)N2CCC(c3nc(N)nc4ccccc34)CC2)cc1OC [Example 56] | -28%
